Laboratory results published in ChEMBL document CHEMBL5576158, “Recent insights of PROTAC developments in inflammation-mediated and autoimmune targets: a critical review” (RSC Med Chem, 2024).
Values belong to the compound of their own block, whether it stands above or below them.

Tests used:
[1] = molecular target: Protein cereblon/Protein deacetylase HDAC6 (Homo sapiens, UniProt Q9UBN7+Q96SW2); assay: PROTAC activity at CRBN/HDAC6 in human MM1.S cells assessed as HDAC6 degradation incubated for 18 hrs by immunoblot analysis; assay type: cell-based
[2] = molecular target: Protein cereblon/Histone deacetylase 8 (Homo sapiens, UniProt Q9BY41+Q96SW2); assay: PROTAC activity at CRBN/HDAC8 in human Jurkat T cells assessed as induction of degradation of HDAC8 by Western blot analysis; assay type: cell-based
[3] = molecular target: Protein cereblon/Macrophage migration inhibitory factor (Homo sapiens) (UniProt P14174+Q96SW2); assay: PROTAC activity at E3 ubiquitin ligase/MIF in human A549 cells assessed as induction of MIF degradation by Western blot analysis; assay type: cell-based
[4] = molecular target: T1, Macrophage migration inhibitory factor (Homo sapiens, UniProt P14174); assay: Binding affinity to MIF in human A549 cells assessed as inhibition constant; assay type: cell-based
T1 sequence (P14174 whole entry): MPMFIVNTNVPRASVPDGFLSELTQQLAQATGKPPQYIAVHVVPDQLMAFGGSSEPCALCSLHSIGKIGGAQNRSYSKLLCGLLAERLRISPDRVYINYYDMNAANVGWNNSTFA

[5] = Cytotoxicity against mouse RAW264.7 cells assessed as reduction in cell growth; assay type: toxicity, cell-based
[6] = molecular target: Protein cereblon/Histone acetyltransferase KAT2B (Homo sapiens) (UniProt Q92831+Q96SW2); assay: PROTAC activity at PCAF/CRBN in human THP-1 cells assessed as induction of PCAF degradation by measuring maximal efficacy at 30 nM measured for 10 mins by Western blot analysis relative to control; assay type: cell-based
[7] = molecular target: Protein cereblon/Histone acetyltransferase KAT2A (Homo sapiens) (UniProt Q92830+Q96SW2); assay: PROTAC activity at GCN5/CRBN in human THP-1 cells assessed as induction of […] degradation by measuring maximal efficacy at 30 nM measured for 10 mins by Western blot analysis relative to control; assay type: cell-based
[8] = molecular target: Protein cereblon/Indoleamine 2,3-dioxygenase 1 (Homo sapiens) (UniProt P14902+Q96SW2); assay: PROTAC activity against CRBN/IDO1 in human HeLa cells assessed as induction of IDO1 degradation at 2 uM incubated for 24 hrs by Western blot analysis relative to control; assay type: cell-based
[9] = molecular target: von Hippel-Lindau disease tumor suppressor/Receptor-interacting serine/threonine-protein kinase 2 (Homo sapiens) (UniProt O43353+P40337); assay: PROTAC activity at VHL/RIPK2 in human THP-1 cells assessed as RIPK2 degradation by measuring maximal efficacy at 10 nM measured after 16 hrs by Western blot analysis relative to control; assay type: cell-based
[10] = molecular target: Receptor-interacting serine/threonine-protein kinase 2 (Homo sapiens) (UniProt O43353); assay: PROTAC activity at IAP/RIPK2 in human THP-1 cells assessed as […] by Western blot analysis
[11] = molecular target: T2, Tyrosine-protein kinase ITK/TSK (Homo sapiens, UniProt Q08881); assay: Inhibition of ITK (unknown origin)
T2 sequence (Q08881 whole entry): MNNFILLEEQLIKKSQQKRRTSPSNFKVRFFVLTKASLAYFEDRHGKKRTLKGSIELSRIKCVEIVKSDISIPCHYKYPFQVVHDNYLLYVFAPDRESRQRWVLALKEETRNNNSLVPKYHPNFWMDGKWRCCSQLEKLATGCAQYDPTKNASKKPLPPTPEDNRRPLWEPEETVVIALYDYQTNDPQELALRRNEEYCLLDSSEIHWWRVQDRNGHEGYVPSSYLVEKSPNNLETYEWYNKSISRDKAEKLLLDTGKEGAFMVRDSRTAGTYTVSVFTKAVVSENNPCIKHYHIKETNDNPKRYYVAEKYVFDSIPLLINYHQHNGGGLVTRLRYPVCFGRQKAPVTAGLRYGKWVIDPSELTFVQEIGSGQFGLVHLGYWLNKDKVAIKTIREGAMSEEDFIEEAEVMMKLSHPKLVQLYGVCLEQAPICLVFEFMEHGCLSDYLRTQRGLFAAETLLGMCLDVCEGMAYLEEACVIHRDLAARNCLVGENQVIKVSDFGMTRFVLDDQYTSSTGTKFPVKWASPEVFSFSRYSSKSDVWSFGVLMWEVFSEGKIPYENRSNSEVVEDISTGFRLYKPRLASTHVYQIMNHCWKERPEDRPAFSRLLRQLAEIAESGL

[12] = molecular target: T3, Tyrosine-protein kinase ITK/TSK (Homo sapiens) (UniProt Q08881); assay: Degradation of ITK (unknown origin) at 1 uM relative to control
T3 sequence (whole entry): T2 sequence (Q08881 whole entry)

[13] = molecular target: Protein cereblon/Interleukin-1 receptor-associated kinase 4 (Homo sapiens, UniProt Q9NWZ3+Q96SW2); assay: PROTAC activity at CRBN/IRAK4 in human THP-1 cells assessed as induction of IRAK4 degradation by Immuno-blotting analysis; assay type: cell-based
[14] = molecular target: von Hippel-Lindau disease tumor suppressor/Tyrosine-protein kinase BTK (Homo sapiens, UniProt Q06187+P40337, C481S); assay: PROTAC activity at VHL/BTK C481S mutant in human THP-1 cells assessed as induction of BTK degradation incubated for 24 hrs by immunoblotting analysis; assay type: cell-based
[15] = molecular target: T4, von Hippel-Lindau disease tumor suppressor/Interleukin-1 receptor-associated kinase 3 (Homo sapiens, UniProt Q9Y616+P40337); assay: PROTAC activity at IRAK3/VHL E3 ligase in human THP-1 cells assessed as induction of IRAK3 degradation by Immuno-blot analysis; assay type: cell-based
[16] = molecular target: T4, von Hippel-Lindau disease tumor suppressor/Interleukin-1 receptor-associated kinase 3; assay: PROTAC activity at IRAK3/VHL E3 ligase in human THP-1 cells assessed as induction of IRAK3 degradation by measuring maximal efficacy incubated for 24 hrs by Western blot analysis; assay type: cell-based
Target sequence in this assay (P40337 whole entry, looked up): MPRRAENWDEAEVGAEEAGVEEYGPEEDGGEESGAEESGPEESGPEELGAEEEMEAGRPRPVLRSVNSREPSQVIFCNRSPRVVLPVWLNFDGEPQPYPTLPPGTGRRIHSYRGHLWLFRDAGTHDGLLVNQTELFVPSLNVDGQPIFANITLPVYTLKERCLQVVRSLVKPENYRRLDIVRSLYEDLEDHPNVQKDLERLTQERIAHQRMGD
Target sequence in this assay (Q9Y616 whole entry, looked up): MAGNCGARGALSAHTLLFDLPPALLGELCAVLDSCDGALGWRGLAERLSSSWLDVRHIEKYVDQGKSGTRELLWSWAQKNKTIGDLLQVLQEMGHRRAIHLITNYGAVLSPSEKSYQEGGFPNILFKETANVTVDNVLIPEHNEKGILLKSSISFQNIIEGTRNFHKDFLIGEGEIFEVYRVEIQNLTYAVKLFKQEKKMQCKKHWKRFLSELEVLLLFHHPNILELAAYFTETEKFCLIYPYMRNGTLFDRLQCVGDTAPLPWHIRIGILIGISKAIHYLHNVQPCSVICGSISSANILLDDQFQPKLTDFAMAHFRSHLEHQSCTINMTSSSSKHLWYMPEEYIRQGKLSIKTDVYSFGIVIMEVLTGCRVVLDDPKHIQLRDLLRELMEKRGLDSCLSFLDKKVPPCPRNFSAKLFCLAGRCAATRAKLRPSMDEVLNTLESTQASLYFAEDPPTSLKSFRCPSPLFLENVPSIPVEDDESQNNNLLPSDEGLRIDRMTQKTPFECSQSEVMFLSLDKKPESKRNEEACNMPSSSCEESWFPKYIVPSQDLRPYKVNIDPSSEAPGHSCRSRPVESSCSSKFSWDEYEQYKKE

Sequence of Receptor-interacting serine/threonine-protein kinase 2 (Homo sapiens) (O43353 whole entry, looked up): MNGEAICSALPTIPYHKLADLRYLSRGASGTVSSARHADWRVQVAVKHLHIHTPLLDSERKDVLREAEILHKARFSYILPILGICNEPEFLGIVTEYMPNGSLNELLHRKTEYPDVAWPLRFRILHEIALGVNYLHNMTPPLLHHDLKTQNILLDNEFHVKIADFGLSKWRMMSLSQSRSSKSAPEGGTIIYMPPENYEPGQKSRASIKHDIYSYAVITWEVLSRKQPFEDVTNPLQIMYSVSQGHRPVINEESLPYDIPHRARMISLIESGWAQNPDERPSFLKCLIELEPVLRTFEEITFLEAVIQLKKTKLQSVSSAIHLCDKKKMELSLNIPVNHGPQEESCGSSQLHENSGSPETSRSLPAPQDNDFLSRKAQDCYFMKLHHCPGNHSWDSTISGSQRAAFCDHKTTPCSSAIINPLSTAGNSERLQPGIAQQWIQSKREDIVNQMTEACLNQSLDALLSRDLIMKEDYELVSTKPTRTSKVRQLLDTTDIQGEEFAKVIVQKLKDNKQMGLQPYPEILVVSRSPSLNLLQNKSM
Sequence of Protein cereblon/Macrophage migration inhibitory factor (Homo sapiens) (Q96SW2 whole entry partner, one chain of several): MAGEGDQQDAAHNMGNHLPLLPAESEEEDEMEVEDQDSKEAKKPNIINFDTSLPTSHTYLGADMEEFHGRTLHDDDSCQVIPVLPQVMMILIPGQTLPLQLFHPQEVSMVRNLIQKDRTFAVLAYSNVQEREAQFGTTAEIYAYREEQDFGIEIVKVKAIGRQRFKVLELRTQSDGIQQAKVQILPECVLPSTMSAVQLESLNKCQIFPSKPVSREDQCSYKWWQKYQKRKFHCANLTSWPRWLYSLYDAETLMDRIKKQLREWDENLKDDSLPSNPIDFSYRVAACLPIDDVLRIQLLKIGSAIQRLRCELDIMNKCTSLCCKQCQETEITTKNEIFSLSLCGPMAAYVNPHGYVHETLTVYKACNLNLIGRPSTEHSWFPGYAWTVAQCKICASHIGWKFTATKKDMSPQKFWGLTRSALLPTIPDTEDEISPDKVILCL
Sequence of Protein cereblon/Interleukin-1 receptor-associated kinase 4 (Q9NWZ3 whole entry): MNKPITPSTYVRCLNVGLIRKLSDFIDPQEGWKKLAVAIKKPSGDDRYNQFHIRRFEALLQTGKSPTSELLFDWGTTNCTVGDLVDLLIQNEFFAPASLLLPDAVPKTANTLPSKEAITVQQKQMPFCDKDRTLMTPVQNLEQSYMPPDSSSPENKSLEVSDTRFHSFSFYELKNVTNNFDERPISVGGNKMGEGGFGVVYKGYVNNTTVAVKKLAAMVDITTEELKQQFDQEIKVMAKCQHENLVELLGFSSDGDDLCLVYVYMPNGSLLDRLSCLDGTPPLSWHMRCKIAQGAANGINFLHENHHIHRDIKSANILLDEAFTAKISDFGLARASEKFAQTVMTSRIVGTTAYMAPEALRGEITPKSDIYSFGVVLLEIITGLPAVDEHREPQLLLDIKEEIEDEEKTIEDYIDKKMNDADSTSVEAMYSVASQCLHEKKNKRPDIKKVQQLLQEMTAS
Sequence of Protein cereblon/Interleukin-1 receptor-associated kinase 4 (Q96SW2 whole entry): as the sequence (Q96SW2 whole entry partner, one chain of several) above
Sequence of Protein cereblon/Histone deacetylase 8 (Q9BY41 whole entry): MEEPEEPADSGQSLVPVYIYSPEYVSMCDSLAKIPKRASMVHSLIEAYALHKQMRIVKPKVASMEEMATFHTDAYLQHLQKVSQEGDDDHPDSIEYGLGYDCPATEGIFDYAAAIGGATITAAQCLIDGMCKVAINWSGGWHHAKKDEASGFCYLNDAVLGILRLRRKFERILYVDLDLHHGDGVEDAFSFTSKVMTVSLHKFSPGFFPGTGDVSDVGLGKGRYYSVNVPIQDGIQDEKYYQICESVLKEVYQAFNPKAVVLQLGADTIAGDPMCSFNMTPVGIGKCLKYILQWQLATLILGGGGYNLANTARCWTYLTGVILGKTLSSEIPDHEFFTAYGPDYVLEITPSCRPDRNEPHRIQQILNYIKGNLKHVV
Sequence of Protein cereblon/Histone deacetylase 8 (Q96SW2 whole entry): as the sequence (Q96SW2 whole entry partner, one chain of several) above
Sequence of von Hippel-Lindau disease tumor suppressor/Tyrosine-protein kinase BTK (P40337 whole entry, stated change not applied): as the sequence (P40337 whole entry, looked up) above
Sequence of von Hippel-Lindau disease tumor suppressor/Tyrosine-protein kinase BTK (Q06187 2-659 C481S limits assumed, stated change not applied): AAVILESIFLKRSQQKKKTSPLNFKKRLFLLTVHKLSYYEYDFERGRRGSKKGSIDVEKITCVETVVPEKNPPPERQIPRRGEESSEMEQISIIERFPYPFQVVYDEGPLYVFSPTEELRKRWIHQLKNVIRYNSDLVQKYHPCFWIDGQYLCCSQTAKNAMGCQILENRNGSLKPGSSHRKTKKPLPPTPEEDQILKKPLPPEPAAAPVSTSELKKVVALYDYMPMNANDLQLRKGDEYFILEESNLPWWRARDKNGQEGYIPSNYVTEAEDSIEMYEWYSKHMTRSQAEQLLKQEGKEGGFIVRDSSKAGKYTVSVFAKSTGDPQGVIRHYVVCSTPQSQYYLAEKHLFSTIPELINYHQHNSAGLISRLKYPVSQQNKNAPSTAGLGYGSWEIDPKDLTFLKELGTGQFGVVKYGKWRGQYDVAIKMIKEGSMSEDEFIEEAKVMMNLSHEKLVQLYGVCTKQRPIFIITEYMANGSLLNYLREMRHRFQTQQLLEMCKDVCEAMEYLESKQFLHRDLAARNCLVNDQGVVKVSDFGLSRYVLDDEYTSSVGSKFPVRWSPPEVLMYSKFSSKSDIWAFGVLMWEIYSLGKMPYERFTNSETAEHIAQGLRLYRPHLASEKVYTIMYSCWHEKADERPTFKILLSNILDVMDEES

DC50 [1]: 1.9 nM
Structure (SMILES): CCCCN(Cc1ccc(C(=O)O)cc1)C(=O)Nc1ccc(OCCCCCCCn2cc(CNCc3ccc(-c4cccc5c4CN(C4CCC(=O)NC4=O)C5=O)cc3)nn2)cc1 (centres undefined)

DC50 [2]: 702 nM
Structure (SMILES): O=C1CCC(N2C(=O)c3ccc(NCCCCCCCCCCCNC(=O)c4cccc(SCc5cn(-c6cccc(C(=O)NO)c6)nn5)c4)cc3C2=O)C(=O)N1 (centres undefined)

Structure (SMILES): O=C1CCC(N2C(=O)c3cccc(NCCCCC(=O)Nc4ccc(N5Cc6ccc(O)cc6OC5=O)cc4)c3C2=O)C(=O)N1 (centres undefined)
Emax [3]: 21%
Ki [4]: 86 nM

Structure (SMILES): C=C1CC[C@H]2[C@@H](/C=C(\C)C(=O)[C@@]3(O)C[C@H](C)[C@H](O)[C@@H]3[C@H]1OCc1cn(CCOCCOCCOCCNc3cccc4c3C(=O)N(C3CCC(=O)NC3=O)C4=O)nn1)C2(C)C (some centres undefined)
IC50 [5]: 8340 nM

Emax [3]: 55%
Structure (SMILES): CN1C(=O)CCC(N2C(=O)c3cccc(NCCCCCCCC(=O)Nc4ccc(N5Cc6ccc(O)cc6OC5=O)cc4)c3C2=O)C1=O (centres undefined)

Emax [6]: 80%
Emax [7]: 80%
Structure (SMILES): CN1C[C@H](Nc2cnn(C)c(=O)c2Br)C[C@H](c2ccc(C(=O)N(C)CCCN(C)c3ccc(CCCOc4cccc5c4C(=O)N(C4CCC(=O)NC4=O)C5=O)cc3)cc2)C1 (some centres undefined)

Structure (SMILES): O=C1CCC(N2C(=O)c3cccc(NCCCCCCCCCC(=O)Nc4ccc(N5Cc6ccc(O)cc6OC5=O)cc4)c3C2=O)C(=O)N1 (centres undefined)
Emax [3]: 64%

Emax [8]: 93%
Structure (SMILES): O=C1CCC(N2C(=O)c3cccc(NCCOCCOCCOCCOCCOCCOCCOCCNCCNc4nonc4/C(=N/O)Nc4ccc(F)c(Br)c4)c3C2=O)C(=O)N1 (centres undefined)

Emax [9]: 95%
Structure (SMILES): Cc1ncsc1-c1ccc(CNC(=O)[C@@H]2C[C@@H](O)CN2C(=O)[C@@H](NC(=O)COCCOCCOCCOCCOc2cc3nccc(Nc4ccc5scnc5c4)c3cc2S(=O)(=O)C(C)(C)C)C(C)(C)C)cc1

Structure (SMILES): O=C1CCC(N2C(=O)c3cccc(NCCCCCCC(=O)Nc4ccc(N5Cc6ccc(O)cc6OC5=O)cc4)c3C2=O)C(=O)N1 (centres undefined)
Emax [3]: 55%

pDC50 [10]: 9.4
Structure (SMILES): CN[C@H](C)C(=O)N[C@@H](C(=O)N1Cc2cc(OCCOCCOCCOCCOc3cc4nccc(Nc5ccc6scnc6c5)c4cc3S(=O)(=O)C(C)(C)C)ccc2C[C@H]1C(=O)N[C@H]1CCCc2ccccc21)C(C)(C)C

IC50 [11]: 17.6 nM
degradation [12]: > 90%
pDC50 [10]: 9.4
Structure (SMILES): COc1cc(C)c(Sc2cnc(NC(=O)c3ccc(N4CCN(CCCCCCNC(=O)COc5cccc6c5C(=O)N(C5CCC(=O)NC5=O)C6=O)CC4)cc3)s2)cc1C(=O)N1CCN(C(C)=O)CC1 (centres undefined)

pDC50 [10]: 7.9
Structure (SMILES): CN[C@@H](C)C(=O)N[C@H](C(=O)N1CCC[C@H]1c1nc(C(=O)c2ccc(F)cc2)cs1)C1CCN(C(=O)c2cnc(N3CCN(CCOc4cc5ncnc(Nc6n[nH]c(C)c6C)c5cc4S(=O)(=O)C(C)(C)C)CC3)nc2)CC1

DC50 [13]: 190 nM
Structure (SMILES): CC(C)Nc1cc(C(=O)N[C@H]2CC[C@@H](C(=O)NCCCCCNC(=O)COc3cccc4c3C(=O)N(C3CCC(=O)NC3=O)C4=O)CC2)nc(-n2ccc3cc(C#N)cnc32)c1 (some centres undefined)

Structure (SMILES): O=C1CCC(N2C(=O)c3cccc(NCCCCCCCC(=O)Nc4ccc(N5Cc6ccc(O)cc6OC5=O)cc4)c3C2=O)C(=O)N1 (centres undefined)
Emax [3]: 91%

Structure (SMILES): O=C1CCC(N2C(=O)c3cccc(NCCCC(=O)Nc4ccc(N5Cc6ccc(O)cc6OC5=O)cc4)c3C2=O)C(=O)N1 (centres undefined)
Ki [4]: 55 nM

DC50 [13]: 405 nM
Structure (SMILES): CC(C)Nc1cc(C(=O)N[C@H]2CC[C@@H](C(=O)NCCOCCNC(=O)COc3cccc4c3C(=O)N(C3CCC(=O)NC3=O)C4=O)CC2)nc(-n2ccc3cc(C#N)cnc32)c1 (some centres undefined)

Structure (SMILES): CN[C@@H](C)C(=O)N[C@H](C(=O)N1C[C@@H](NC(=O)OCCOCCOCCOCCN2CCN(CCCC(=O)N3CCC[C@@H](n4nc(-c5ccc(Oc6ccccc6)cc5)c5c(N)ncnc54)C3)CC2)C[C@H]1C(=O)N[C@@H]1CCCc2ccccc21)C1CCCCC1
DC50 [14]: 200 nM

DC50 [15]: 94 nM
Emax [16]: 95%
Structure (SMILES): Cc1ncsc1-c1ccc([C@H](C)NC(=O)[C@@H]2C[C@@H](O)CN2C(=O)[C@@H](NC(=O)[C@H]2CC[C@H](C(=O)N3CCC(n4cc(-c5cnc(N)c(O[C@@H](C)c6c(Cl)ccc(F)c6Cl)c5)cn4)CC3)CC2)C(C)(C)C)cc1
